This note sets out measurements from ChEMBL document CHEMBL1201862, “PubChem BioAssay data set” (2004).

Holding throughout (test): DTP human tumour cell line panel, 48 h
Assay [1] deals with NCI-H226.
Assay [2] relates to UACC-62.
Assay [3] has as its system NCI-H522.
The subject of assay [4] is SF-539.
Assay [5] concerns K562.
The test system of assay [6] is MDA-MB-231.
In assay [7] the test system is IGROV-1.
The test system of assay [8] is SF-268.
Assay [9] relates to SN12C.
Assay [10] relates to SF-295.
In assay [11] the test system is HOP-92.
The test system of assay [12] is SW-620.
In assay [13] the test system is HCT-15.
Assay [14] relates to CCRF-CEM.
Assay [15] relates to M14.
Assay [16] has as its system PC-3.
For assay [17], the system named is A549.
Assay [18] has as its system HL-60.
The test system of assay [19] is HT-29.
Assay [20] relates to SK-MEL-28.

The structures appear in SMILES notation.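 1) Cells in 96-well plates. 2) Compound, 48 h, 5 concentrations. 3) Linear interpolation between surrounding doses. 4) Unreached endpoint = highest concentration. GI50: concentration for 50% inhibition of growth.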 Active and inactive are the calls of the source. No stated cut-off is given here; in the data, active = GI50 up to about 1.1 µM and inactive = higher. Starred links: 1 amine or outer side, 2 acyl side, 3 side chain; linkers in the order of their positions; H or OH if unused. Positions of bridges follow the written chain, without caps; N, C: chain ends. Non-standard residues stand in square brackets, D forms with d. Residues, ends and D or L forms follow the SMILES beside them. *: point of attachment. X40 = CC[C@H](C)[C@@H](N[*:1])[C@@H](O)CC(=O)[*:2]; NMeY = CN[C@@H](Cc1ccc(O)cc1)C(=O)O; dNMeL = CN[C@H](CC(C)C)C(=O)O; Hiv = CC(C)[C@H](O)C(=O)O; Pyruvoyl = CC(=O)C(=O)*

In general, GI50 refers to the concentration giving 50% growth inhibition. Turning to `COc1ccc2c(c1)c1c3c(ccc4ncn2c43)N(CCO)CCN=1`, the GI50 in [1] was 0.182 µM (active); in [2] it was 0.216 µM (active); in [3], 0.106 µM (active); in assay [4], 0.0893 µM (active); in assay [5], 0.0586 µM (active); in assay [6], 0.183 µM (active). For the same compound, the GI50 in [7] is 2.02 µM (inactive); in assay [8], 0.221 µM (active); in [9], 0.158 µM (active); in assay [10] it was 0.19 µM (active); in assay [11], 2.07 µM (inactive); in assay [12] it was 0.802 µM (active). Also, the GI50 is 0.195 µM in assay [13]; 0.0476 µM (active) in assay [14]; 0.271 µM (active) in [15]; 0.148 µM (active) in [16]; 0.218 µM (active) in [17]; 0.165 µM (active) in assay [18]. The GI50 in assay [19] is 0.136 µM (active); in assay [20] it was 0.327 µM (active).

Consider `COc1cc2c(c(OC)c1OC)-c1ccc(SC)cc1[C@H](OC(=O)c1ccccc1)CC2`, for which the GI50 in assay [1] is 0.237 µM (active); in assay [2], 0.0753 µM (active); in assay [3], 0.0324 µM (active); in [4] it was 0.0369 µM (active); in assay [5], 0.0849 µM (active); in assay [6], 0.284 µM (active). The GI50 in assay [7] was 0.145 µM (active); in [8] it was 0.214 µM (active); in [9], 0.254 µM (active); in assay [10], 0.0809 µM (active); in assay [11], 0.286 µM (active); in [12], 0.0313 µM (active). The GI50 is 0.0667 µM in assay [13]; 0.0488 µM (active) in [14]; 0.0519 µM (active) in [15]; 0.0673 µM (active) in assay [16]; 0.123 µM (active) in assay [17]; 0.146 µM (active) in assay [18]. Moreover, the GI50 was 0.122 µM (active) in [19] and 0.0571 µM (active) in assay [20].

For the compound `O=C(O)[C@@H]1CCC(=O)N1C(c1ccc2c(c1)OCO2)c1ccc2c(c1)OCO2`, the GI50 in assay [1], in assay [2], in assay [3], in assay [4], in assay [5] and in assay [6] was > 100 µM (inactive) each time. In addition, the GI50 in [7], in [8], in [9], in [10], in [11] and in [12] was > 100 µM (inactive) each time. The GI50 in assay [13] was more than 100 µM; in [14], > 10 µM (inactive); in assay [15], > 100 µM (inactive); in assay [16], > 100 µM (inactive); in assay [17] it was > 100 µM (inactive); in [18], > 100 µM (inactive). Moreover, the GI50 in [19] and in assay [20] was > 100 µM (inactive) throughout.

Consider `Clc1cc(Cl)nc(Nc2ccc3c(c2)CCC3)n1`, for which the GI50 in assay [1] is 45 µM (inactive); in assay [2], 46.1 µM (inactive); in assay [3], 2.54 µM (inactive); in assay [4], > 100 µM (inactive); in assay [5], 20.6 µM (inactive); in [6] it was 51.3 µM (inactive). Besides, the GI50 in [7] is 16 µM (inactive); in assay [8] it was 44.8 µM (inactive); in assay [9], 45.4 µM (inactive); in assay [10] it was 48.5 µM (inactive); in assay [11], 32.8 µM (inactive); in assay [12], 46.6 µM (inactive). Moreover, the GI50 in assay [13] was 33.7 µM; in assay [14] it was 30.3 µM (inactive); in assay [15] it was 42.9 µM (inactive); in [16] it was 61.9 µM (inactive); in assay [17] it was 32.6 µM (inactive); in assay [18], 36.7 µM (inactive). Besides, the GI50 in assay [19] is 22 µM (inactive); in assay [20], 37.7 µM (inactive).

Consider `C=C1C(=O)OC2C1C(=O)C/C(C)=C/CCC1(C)OC21` (stereo not given), for which the GI50 in assay [1] is 15.8 µM (inactive); in [2], 25.5 µM (inactive); in assay [3] it was 3.63 µM (inactive); in [4], 15 µM (inactive); in assay [5], 5.6 µM (inactive); in [6] it was 20.8 µM (inactive). The GI50 in assay [7] is 20.1 µM (inactive); in assay [8], 19.6 µM (inactive); in assay [9], 22.1 µM (inactive); in assay [10], 52.7 µM (inactive); in assay [11], 15.2 µM (inactive); in assay [12], 16.4 µM (inactive). Moreover, the GI50 in assay [13] was 11.4 µM; in [14] it was 2.79 µM (inactive); in assay [15], 15.6 µM (inactive); in assay [16], 18.1 µM (inactive); in [17] it was 19.4 µM (inactive); in assay [18] it was 1.33 µM (inactive). Further, the GI50 in [19] was 20.6 µM (inactive); in [20], 15.2 µM (inactive).

On to `O=c1oc2ccccc2cc1-c1cn2c(n1)sc1ccccc12`, for which the GI50 in assay [1] was > 100 µM (inactive); in assay [2] it was > 100 µM (inactive); in assay [3], 26.1 µM (inactive); in assay [4], > 100 µM (inactive); in assay [5], > 100 µM (inactive); in assay [6] it was > 100 µM (inactive). Further, the GI50 was > 100 µM (inactive) in assay [7]; 52.6 µM (inactive) in assay [8]; > 100 µM (inactive) in assay [9]; > 100 µM (inactive) in [10]; > 100 µM (inactive) in assay [11]; > 100 µM (inactive) in [12]. Besides, the GI50 was more than 100 µM in [13]; > 100 µM (inactive) in [14]; > 100 µM (inactive) in [15]; > 100 µM (inactive) in assay [16]; > 100 µM (inactive) in [17]; > 100 µM (inactive) in assay [18]. Further, the GI50 in assay [19] is 1.15 µM (inactive); in [20] it was > 100 µM (inactive).

Regarding `Cc1nn2c(=O)c([N+](=O)[O-])c(/C=C/c3ccc(F)cc3)nc2s1`, the GI50 in assay [1] is 11.4 µM (inactive); in assay [2], 11.3 µM (inactive); in assay [3], 8.49 µM (inactive); in assay [4] it was 8.55 µM (inactive); in [5] it was 5.69 µM (inactive); in [6] it was 13.9 µM (inactive). The GI50 in [7] was 10.5 µM (inactive); in assay [8] it was 8.87 µM (inactive); in [9], 11.6 µM (inactive); in [10], 11.8 µM (inactive); in assay [11], 15.5 µM (inactive); in [12], 11.5 µM (inactive). The GI50 is 7.5 µM in [13]; 4.47 µM (inactive) in assay [14]; 11.3 µM (inactive) in assay [15]; 9.42 µM (inactive) in assay [16]; 9.06 µM (inactive) in [17]; 3.95 µM (inactive) in [18]. Moreover, the GI50 in assay [19] is 6.52 µM (inactive); in [20], 12.9 µM (inactive).

`CCCc1cn2c(/C=N/N=C(N)N)c(-c3c(OC)ccc(OC)c3[N+](=O)[O-])nc2s1`: the GI50 in assay [1] is 11.4 µM (inactive); in [2], 8.24 µM (inactive); in assay [3], 8.79 µM (inactive); in [4], 16.9 µM (inactive); in [5], 3.44 µM (inactive); in assay [6], 4.07 µM (inactive). Besides, the GI50 in [7] was 9.89 µM (inactive); in assay [8] it was 11.4 µM (inactive); in [9], 14.2 µM (inactive); in assay [10], 14.1 µM (inactive); in assay [11], 12.5 µM (inactive); in [12] it was 7.78 µM (inactive). For the same compound, the GI50 in assay [13] was 18.2 µM; in assay [14], 2.84 µM (inactive); in [15] it was 7.08 µM (inactive); in [16], 9.59 µM (inactive); in assay [17] it was 19.4 µM (inactive); in assay [18] it was 7.46 µM (inactive). Further, the GI50 in assay [19] was 4.06 µM (inactive); in [20], 4.84 µM (inactive).

For `CC[C@H](C)[C@H]1NC(=O)[C@@H](NC(=O)[C@@H](CC(C)C)N(C)C(=O)[C@@H]2CCCN2C(=O)C(C)=O)[C@@H](C)OC(=O)[C@H](Cc2ccc(OC)cc2)N(C)C(=O)[C@@H]2CCCN2C(=O)[C@H](CC(C)C)NC(=O)[C@H](C(C)C)OC(=O)C[C@@H]1O` (Pyruvoyl-P[dNMeL]T[X40][Hiv]LP[NMeY](Me); ester 3-C), the GI50 in assay [1] is 0.0159 µM (active); in [2], 0.00374 µM (active); in assay [3], 0.00547 µM (active); in [4], 0.00361 µM (active); in assay [5], 0.00353 µM (active); in [6], 0.0138 µM (active). Besides, the GI50 in assay [7] was 0.00471 µM (active); in assay [8], 0.00569 µM (active); in assay [9] it was 0.0043 µM (active); in assay [10] it was 0.00718 µM (active); in assay [11], 0.0302 µM (active); in assay [12], 0.00505 µM (active). The GI50 in assay [13] is 0.0252 µM; in assay [14] it was 0.00224 µM (active); in [15], 0.00269 µM (active); in assay [16] it was 0.0046 µM (active); in [17] it was 0.00454 µM (active); in [18], 0.05 µM (active). Moreover, the figures for the GI50 in [19] and in [20] were 0.00434 µM (active) and 0.005 µM (active), respectively.

As for `NC(=O)CC(Nc1ncc2c(n1)-c1ccccc1OC2)C(=O)O` (stereo not given), the GI50 in assay [1] is 71.1 µM (inactive); in assay [2], > 100 µM (inactive); in assay [3] it was > 100 µM (inactive); in [4], > 100 µM (inactive); in assay [5] it was > 100 µM (inactive); in [6], > 100 µM (inactive). In addition, the GI50 is 24.2 µM (inactive) in assay [7]; > 100 µM (inactive) in [8]; > 100 µM (inactive) in assay [9]; > 100 µM (inactive) in assay [10]; > 100 µM (inactive) in [11]; > 100 µM (inactive) in assay [12]. Moreover, the 50% growth inhibitory concentration (GI50) in assay [13] is 85.7 µM; in [14], > 100 µM (inactive); in assay [15], > 100 µM (inactive); in assay [16], > 100 µM (inactive); in assay [17], > 100 µM (inactive); in [18], 14.9 µM (inactive). Further, the GI50 in [19] was 64.3 µM (inactive); in assay [20] it was > 100 µM (inactive).
